Laboratory results: ChEMBL document CHEMBL2157927, “Imidazotriazinone compounds: patent highlight” (ACS Med Chem Lett, 2012)

Legend:
[1] = Selectivity ratio of IC50 for PDE1B to IC50 for PDE9
[2] = Inhibition of PDE9 by spectrophotometric analysis
[3] = Selectivity ratio of IC50 for PDE1A to IC50 for PDE9

Ratio IC50 [1]	IC50 [2] [µM]	Ratio IC50 [3]	Structure (SMILES)
> 1000	< 1	> 1000	C[C@@H]1CN(Cc2cccc(F)c2)C[C@H]1c1nn2c(C3CCOCC3)ncc2c(=O)[nH]1
	1		C[C@@H]1CN(Cc2cnccn2)C[C@H]1c1nn2c(C3CCOCC3)ncc2c(=O)[nH]1
	> 10		C[C@@H]1CN(Cc2ncccn2)C[C@H]1c1nn2c(C3CCOCC3)ncc2c(=O)[nH]1
